# Experimental data as given in US20250064773A1, “TARGETING ERO1 ALPHA WITH AURONE DERIVATIVES” (West Virginia University Board of Governors on behalf of …, priority 2021, published 2025).
# Tested on: HCC4006
# Test: MTT viability assay, HCC4006
# Assay type: cell-based
# Details: Homo sapiens, NSCLC (adenocarcinoma), read-out: IC50 Avg ± s.d. (n = 3), HCC4006
# Text: Cell Lines: PC-9 cell line used was obtained from Sigma Aldrich and grown in RPMI 1640 medium with 10% fetal bovine serum and 1% penicillin/streptomycin. HCC4006, U266, MM1.s, and Beas-2B cell lines were obtained from ATCC and cultured in either RPMI 1640 or DMEM with 10% fetal bovine serum and 1% penicillin/streptomycin. All cell lines were also checked for mycoplasma every six months and subjected to short tandem repeat (STR) analysis for cell line validation. CRISPR Cas9: CRISPR Guide RNA 2 targeting ERO1α and CRISPR Guide RNA 4 were purchased from Genscript in the pLentiCRISPR V2 plasmid containing puromycin/ampicillin selection marker. Lentivirus was made from HEK 293T cells by co-transfection with GuideRNA of interest, pVSVG, and pPAX2 plasmids. […] Plate was then read on the BioTek Cytation 5 at 530/590 nm. […] Plate was then read at 570 nm. Treated wells were all compared to DMSO control wells to calculate percent growth inhibition and the IC50 was calculated using GraphPad (log(inhibitor) vs growth inhibition). […] Images were then quantified using ImageJ. […] Cells were aliquoted at 1 million cells per PCR tube in PBS and heated in Bio-Rad T100 thermal cycler at indicated temperatures (RT, 46° C., 48° C., 50° C., 52° C., 54° C., 56°, 58° C., and 60° C.) for 3 minutes and aggregation temperature was determined by western blot analysis. […]
smiles,measurement,value
CN(C)c1ccc(/C=C2\Oc3cc(O)ccc3C2=O)cc1 [Compound T151742],IC50,18.5 ± 14.7 µM
